The values that follow come from ChEMBL document CHEMBL1201862, “PubChem BioAssay data set” (2004).

Each structure is given as a SMILES string.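 In this assay, cells in 96-well plates receive the compound at five concentrations for 48 hours. Endpoints are linearly interpolated between the surrounding concentrations. GI50: concentration for 50% inhibition of growth.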 Calls of active or inactive are those of the source. No stated cut-off is given here; in the data, active = GI50 up to about 1.1 µM and inactive = higher.

Holding throughout (experiment): growth of human tumour cells (NCI), 48 h
Test [1] concerns HCC 2998.
Test [2] concerns NCI/ADR-RES.
Test [3] concerns EKVX.
The test system of test [4] is UO-31.
The subject of test [5] is CAKI-1.
Test [6] relates to CCRF-CEM.
Test [7] deals with RXF 393.
The test system of test [8] is HCT-116.
Test [9] concerns MDA-MB-435.
The subject of test [10] is SK-MEL-2.
The subject of test [11] is ACHN.
The test system of test [12] is SK-MEL-5.
The test system of test [13] is OVCAR-5.
The subject of test [14] is DU-145.
Test [15] concerns HOP-92.
Test [16] concerns NCI-H460.
Test [17] concerns NCI-H226.
Test [18] relates to NCI-H522.
For test [19], the system named is U-251.

For the compound `COc1cc2c(cc1OC)C(=O)/C(=C/c1cc(C)c(O)c(C)c1)C2`, the GI50 was < 0.0407 µM (active) in [1]; 0.403 µM (active) in test [2]; < 0.01 µM (active) in test [3]; > 100 µM (inactive) in test [4]; 0.0803 µM (active) in test [5]; < 0.01 µM (active) in test [6]. Besides, the GI50 in test [7] is < 0.0504 µM (active); in [8] it was < 0.0112 µM (active); in [9], < 0.01 µM (active); in [10], < 0.01 µM (active); in test [11], 0.0603 µM (active); in [12], < 0.01 µM (active). Also, the GI50 in test [13] was 1.63 µM (inactive); in test [14] it was < 0.01 µM (active); in test [15] it was > 100 µM (inactive); in test [16] it was < 0.01 µM (active); in [17], 23.8 µM (inactive); in [18] it was < 0.01 µM (active). Besides, in [19], the GI50 is < 0.01 µM (active).

In the case of `Cn1c(=O)c2c(nc3sc4c(n32)C(=O)c2c(O)ccc(O)c2C4=O)n(C)c1=O`, the GI50 in [1] is 4.11 µM (inactive); in [2], 2.74 µM (inactive); in test [3], 13 µM (inactive); in test [4] it was 3.74 µM (inactive); in test [5], 6.04 µM (inactive); in [6], 0.305 µM (active). Moreover, the GI50 in test [7] was 2.68 µM (inactive); in test [8], 1.87 µM (inactive); in [9], 4.78 µM (inactive); in test [10], 4.42 µM (inactive); in test [11], 2.94 µM (inactive); in test [12], 2.46 µM (inactive). Moreover, the GI50 is 28 µM (inactive) in test [13]; 11.2 µM (inactive) in test [14]; 2.66 µM (inactive) in [15]; 20.5 µM (inactive) in [16]; 53.8 µM (inactive) in [17]; 0.137 µM (active) in test [18]. The GI50 in test [19] is 14.6 µM (inactive).

Regarding `O=C1C(Cl)=C(N2C(=O)CCCC2=O)C(=O)c2ccccc21`, the GI50 in test [1] was 16.6 µM (inactive); in test [2], 22.6 µM (inactive); in test [3], 16.3 µM (inactive); in test [4] it was 11 µM (inactive); in [5] it was 14 µM (inactive); in test [6], 4.13 µM (inactive). Also, the GI50 is 15.7 µM (inactive) in test [7]; 16.8 µM (inactive) in [8]; 21.8 µM (inactive) in test [9]; 22.5 µM (inactive) in test [10]; 8.87 µM (inactive) in test [11]; 16.6 µM (inactive) in test [12]. Further, the GI50 in [13] is 18 µM (inactive); in test [14], 16.6 µM (inactive); in [15], 3.46 µM (inactive); in test [16], 14.6 µM (inactive); in test [17], 59.4 µM (inactive); in test [18], 1.84 µM (inactive). For the same compound, the GI50 in test [19] was 26 µM (inactive).

With `N=C(N)SCC(=O)O`, the GI50 in [1], in [2], in test [3], in [4], in test [5] and in test [6] was > 100 µM (inactive) throughout. Also, the GI50 in [7], in test [8], in test [9], in [10], in [11] and in test [12] was > 100 µM (inactive) in each case. Also, the GI50 in test [13], in test [14], in test [15], in test [16], in test [17] and in test [18] was > 100 µM (inactive) throughout. For the same compound, in test [19], the GI50 is > 100 µM (inactive).

As to `CC(C)(Cl)C(Br)CC/C(CBr)=C(/Cl)CCl.CC(C)(Cl)C(Br)CC/C(CBr)=C(\Cl)CCl` (stereo not given), the GI50 in test [1] was 2.86 µM (inactive); in [2], 2.21 µM (inactive); in test [3], 6.17 µM (inactive); in [4], 1.95 µM (inactive); in [5] it was 2.41 µM (inactive); in test [6] it was 0.126 µM (active). Besides, the GI50 in test [7] is 2.14 µM (inactive); in test [8] it was 1.82 µM (inactive); in test [9], 1.79 µM (inactive); in test [10] it was 2.23 µM (inactive); in [11], 5.64 µM (inactive); in test [12] it was 1.82 µM (inactive). Moreover, the GI50 was 5.13 µM (inactive) in test [13]; > 10 µM (inactive) in test [14]; 1.9 µM (inactive) in [15]; 6.38 µM (inactive) in test [16]; 0.975 µM (active) in test [17]; 1.45 µM (inactive) in test [18]. Besides, the GI50 in [19] was 1.73 µM (inactive).

In the case of `O=C(NCCCNCCN1C(=O)c2cccc3cc([N+](=O)[O-])cc(c23)C1=O)c1cc(-c2ccccc2)nc2ccccc12`, the GI50 is 1.49 µM (inactive) in test [1]; 4.22 µM (inactive) in [2]; 7.52 µM (inactive) in test [3]; 2.52 µM (inactive) in test [4]; 6.07 µM (inactive) in test [5]; 0.966 µM (active) in test [6]. In addition, the GI50 in test [7] was 1.49 µM (inactive); in test [8], 1.23 µM (inactive); in test [9], 1.46 µM (inactive); in test [10] it was 3.31 µM (inactive); in test [11], 0.991 µM (active); in test [12], 2.09 µM (inactive). Also, the GI50 in test [13] is 3.94 µM (inactive); in test [14], 5.21 µM (inactive); in [15], 3.18 µM (inactive); in [16], 1.55 µM (inactive); in test [17], 7.26 µM (inactive); in [18], 1.62 µM (inactive). Further, the GI50 in test [19] is 2.09 µM (inactive).

Take `O=C1c2ccccc2C(=O)N1CCSCC(CO)SCCN1C(=O)c2ccccc2C1=O` (stereo not given): the GI50 in test [1] was > 100 µM (inactive); in test [2] it was 74.8 µM (inactive); in test [3], 91 µM (inactive); in test [4], > 100 µM (inactive); in test [5], > 100 µM (inactive); in [6], 59.8 µM (inactive). Also, the GI50 in test [7], in test [8], in test [9], in test [10], in test [11] and in test [12] was > 100 µM (inactive) in each case. Besides, the GI50 is > 100 µM (inactive) in test [13]; > 100 µM (inactive) in [14]; > 100 µM (inactive) in [15]; > 100 µM (inactive) in [16]; > 100 µM (inactive) in [17]; 62.5 µM (inactive) in [18]. For the same compound, the GI50 in test [19] is > 100 µM (inactive).

Regarding `C#C[C@]1(O)CC[C@H]2[C@@H]3CCC4=C/C(=N\OCCN(CC)CC)CC[C@]4(C)[C@H]3CC[C@@]21C`, the GI50 in test [1] is 10.2 µM (inactive); in [2] it was 2.59 µM (inactive); in test [3], 6.87 µM (inactive); in test [4], 3.72 µM (inactive); in [5], 7.93 µM (inactive); in test [6] it was 3.33 µM (inactive). Also, the GI50 in test [7] was 2.41 µM (inactive); in test [8], 3.44 µM (inactive); in [9] it was 3.27 µM (inactive); in test [10], 3.27 µM (inactive); in test [11], 6.7 µM (inactive); in test [12], 2.44 µM (inactive). Also, the GI50 in test [13] is 12.9 µM (inactive); in [14] it was 10.4 µM (inactive); in test [15], 16.5 µM (inactive); in test [16], 5.08 µM (inactive); in [17], 11.9 µM (inactive); in test [18], 2.42 µM (inactive). Further, the GI50 in [19] is 8.04 µM (inactive).

Turning to `O=C(c1ccccc1)C1C[C@H]2CO[C@H](c3ccccc3)N2C1=O` (stereo not given in full), the GI50 in test [1] is > 100 µM (inactive); in [2], > 100 µM (inactive); in test [3] it was > 100 µM (inactive); in test [4], > 100 µM (inactive); in test [5], > 100 µM (inactive); in test [6], 99.3 µM (inactive). The GI50 in test [7], in test [8], in test [9], in test [10], in [11] and in [12] was > 100 µM (inactive) in each case. The GI50 in [13], in test [14], in test [15], in [16], in [17] and in test [18] was > 100 µM (inactive) each time. Moreover, the GI50 in [19] is > 100 µM (inactive).

Turning to `COc1c(O)cc(O)c2c(=O)cc(-c3ccccc3)oc12` [WOGONIN], the GI50 is 35.2 µM (inactive) in test [1]; 60.5 µM (inactive) in test [2]; 61.5 µM (inactive) in [3]; 2.58 µM (inactive) in test [4]; 48.6 µM (inactive) in test [5]; 27 µM (inactive) in [6]. The GI50 in test [7] was 17.5 µM (inactive); in test [8], 24.3 µM (inactive); in test [9], 65.5 µM (inactive); in test [10], 43.7 µM (inactive); in test [11] it was 31.4 µM (inactive); in [12], 34.2 µM (inactive). In addition, the GI50 in test [13] was 49.7 µM (inactive); in test [14], 23.6 µM (inactive); in test [15], > 100 µM (inactive); in test [16] it was 26.2 µM (inactive); in [17], 40.9 µM (inactive); in test [18], 40.6 µM (inactive). Also, in test [19], the GI50 was 63.2 µM (inactive).
